In patent publication US7419954B2, “Staphylococcus peptides for bacterial interference” (priority 1998, dated 2008):
Where a SMILES comes first, the peptide text is derived from it. Bridges are numbered along the chain shown (N, C = ends).

What was measured:
[1] = Determination of AIP-II half-life: incubation in PBS or rabbit serum, then dose-response activation of β-lactamase induction; assay type: cell-based, S. aureus; settings: rabbit, rabbit serum; from EC50 shift PBS vs serum; given as in vivo
Protocol: (§1) Determination of AIP-II half-life. To approximate the active lifetime of AIP, a synthetic version of AIP-IL (Lyon et al. (2002) Biochemistry 41, 10095-104) was incubated in PBS or rabbit serum at 37° C. for 4 hours. The sample was diluted and a dose-response assay for activation of β-lactamase induction of strain RN7206 carrying the agrCA-II agrp3-blaZ reporter fusion was performed as previously described (Lyon et al. (2002) supra; Wright III et al. (2004) Proc. Natl. Acad. Sci., USA).

[2] = tested on: strain RN7206 carrying the agrCA-II agrp3-blaZ reporter fusion; test: as above; assay type: cell-based, S. aureus; settings: normal rabbit serum
Protocol: as §1

[3] = tested on: agr-I bacteria (RN6734) carrying agrp3-lux or blaZp-lux; test: Murine subcutaneous abscess model with in vivo bioluminescence imaging; parameters: species or system SKH-1 mice; settings: mice, single dose 10 μg co-injected with agr-I bacteria
Protocol: Murine subcutaneous abscess model. Groups (n=3 per variable examined) of hairless, euthymic SKH-1 (ISL) mice (Charles River) were used in the murine subcutaneous abscess model (Bunce et al. (1992) Infect. Immun. 60, 2636-40). In this model, staphylococci are injected subcutaneously with cytodex beads, and an abscess develops at the site of injection 2-3 days later, then sloughs and drains. The organisms grow rapidly initially, after which the population levels out and remains constant thereafter. Polymorphonuclear leuykocytes (PMNs) are attracted to the developing lesion by bacterial products and by pro-inflammatory cytokines, reaching maximum numbers by about 6 hours.
Bacteria were thawed, diluted to appropriate cell density, mixed with sterile cytodex beads (Sigma) and injected subcutaneously in a volume of 0.1 ml in the flank region. […] Mice were fed a standard diet ad libitum and monitored daily for signs of distress. Colony forming units (CFU) per abscess were determined by plating serial dilutions of excised lesions homogenized in PBS plus 0.5% Triton X-100.
Measurement of bioluminescence in vivo. […] For the graphs, the signal collected on a portion of the CCD array corresponding to the area of injected bacteria was determined in photons/sec/cm^2/sr, referred to as relative light units (RLU), and plotted vs. time after initiation of infection.

[4] = target: agr response in group I (RN6390B) S. aureus; test: agr P3-blaZ β-lactamase reporter assay, activation of the agr response; assay type: cell-based; settings: early exponential phase, 55 minutes
Protocol: (§2) The synthetic AgrD peptides shown in Table 1 include the following: Agr D1 Thiolactone. […] (SEQ ID NO: 9): Agr D2 Thiolactone, […] (SEQ lID NO: 1): Agr D2 Linear Thioester, […] (SEQ ID NO: 1): Agr D2 Linear Free Acid […] (SEQ ID NO: 1); Agr D2 Lactone, […] (SEQ ID NO: 1); and Agr D2 Lactam, GVNAXSSLF (SEQ ID NO: 1).
(§3) Biological activity of synthetic AgrD peptides. Biological assays were performed using groups I (RN6390B), II (SA502A) and III (RN8463) S. aureus strains (Ji et al. (1997) supra), each containing an agr P3-blaZ fusion plasmid (Novick et al. (1995) supra). Cells were grown in CYGP medium at 37° C. to either early exponential phase for agr activation studies, or midexponential phase for agr inhibition studies. To the cultured cells were then added one of the following: buffer solution (negative control), the appropriate cell supernatant containing the natural AgrD peptide as prepared as in (Ji, G., et al., 1995) (positive control) or the synthetic peptide solution in 20 mM tris.HCl buffer at pH 6.0.

[5] = target: agr response in group II (SA502A) S. aureus; test: as above; assay type: cell-based; settings: early exponential phase, 55 minutes
Protocol: as §2, §3

[6] = target: agr response in group III (RN8463) S. aureus; test: as above; assay type: cell-based; settings: early exponential phase, 55 minutes
Protocol: as §2, §3

[7] = target: agr response in group I (RN6390B) S. aureus; test: agr P3-blaZ β-lactamase reporter assay, inhibition of the agr response; assay type: cell-based; settings: for IC50 Inhibition, S. aureus Group I / IC50: group I (RN6390B), midexponential phase, 80 minutes
Protocol: as §2, §3

[8] = target: agr response in group II (SA502A) S. aureus; test: as above; assay type: cell-based; settings: for inhibition of self (own group): own S. aureus group (group II)
Protocol: as §2, §3

[9] = target: agr response in group III (RN8463) S. aureus; test: as above; assay type: cell-based
Protocol: as §2, §3

[10] = target: AgrC receptor of group I S. aureus (Staphylococcus aureus); test: cell-based or functional assay
[11] = tested on: agr response in groups I, II and III S. aureus strains; test: agr P3-blaZ β-lactamase reporter assay, activation/inhibition in the three S. aureus strains; assay type: cell-based
Protocol: as §2, §3

[12] = target: AgrC receptor of group II S. aureus (Staphylococcus aureus); test: cell-based or functional assay
[13] = target: AgrC receptor of group III S. aureus (Staphylococcus aureus); test: cell-based or functional assay
[14] = group II (SA502A), midexponential phase, 80 minutes
[15] = group III (RN8463), midexponential phase, 80 minutes

Row | Compound | ED50 Activation, S. aureus Group II [5] | ED50 Activation, S. aureus Group III [6] | IC50 Inhibition, S. aureus Group I [7] | IC50 Inhibition (nM), agr P3-blaZ beta-lactamase reporter [10] [nM] | ED50 Activation, S. aureus Group I [4] | IC50 Inhibition, S. aureus Group II [8, 14] | other results
1 | CC(C)C[C@@H]1NC(=O)[C@H](CO)NC(=O)[C@H](CO)NC(=O)[C@@H](NC(=O)[C@H](C)NC(=O)[C@H](CC(N)=O)NC(=O)[C@@H](NC(=O)CN)C(C)C)CSC(=O)[C@H](Cc2ccccc2)NC1=O [Agr D2 Thiololactone, GVNACSSLF (SEQ lID NO: 1)] (H-GVNACSSLF; thioester 5-C) |  |  |  |  |  |  | half-life [1]: < 4 h; in vitro lifetime [2]: ~4 h; effective biological lifetime of the peptide in vivo [3]: about 3 hours
2 | YSTCDFIM [Agr D1 Thiolactone, YSTCDFIM (SEQ ID NO: 9)] | No Activation | No Activation | No Inhibition |  |  |  | EC50 ([4]; read-out: ED50 Activation, S. aureus Group I): 10.2 nM; IC50 [8, 14]: 2.9 nM; IC50 [9, 15]: 3.2 nM
3 | Agr D2 Lactam (peptide) |  |  |  | 0.21 |  |  | 
4 | GVNASSSLF [Agr D2 Linear Free Acid, GVNASSSLF (SEQ ID NO: 1)] | No Activation | No Activation | No Inhibition |  | No Activation | No Inhibition | IC50 Inhibition, S. aureus Group III [9, 15]: No Inhibition
5 | GVNASSSLF (SEQ ID NO: 1) [Agr D2 Lactone] | No Activation | No Activation |  |  | No Activation | No Inhibition | inhibition of the agr response in group I S. aureus strains [7]: able to inhibit; IC50 [7]: 7.9 nM; inhibition of self (own group) [8]: do not inhibit self; inhibition of the agr response in group III S. aureus strains [9]: able to inhibit; activation of the agr response in any of the three S. aureus strains [11]: unable to activate
6 | Agr D1 Thiolactone (peptide) |  |  |  |  |  |  | ED50 Activation (nM), agr P3-blaZ beta-lactamase reporter [10]: 10.2 nM; IC50 Inhibition (nM), agr P3-blaZ beta-lactamase reporter [12]: 2.9 nM; IC50 Inhibition (nM), agr P3-blaZ beta-lactamase reporter [13]: 3.2 nM
7 | GVNAASSLF [Agr D2 Linear Thioester, GVNAASSLF (SEQ ID NO: 1)] | No Activation | No Activation | No Inhibition |  | No Activation | No Inhibition | IC50 Inhibition, S. aureus Group III [9, 15]: No Inhibition; activation/inhibition of the agr response ([11]; added to cultured cells at μM concentrations): unable to either activate or inhibit
8 | GVNAXSSLF (SEQ ID NO: 1) [Agr D2 Lactam] | No Activation | No Activation |  |  | No Activation | No Inhibition | inhibition of the agr response in group I S. aureus strains [7]: able to inhibit; IC50 [7]: 0.21 nM; inhibition of self (own group) [8]: do not inhibit self; inhibition of the agr response in group III S. aureus strains [9]: able to inhibit; activation of the agr response in any of the three S. aureus strains [11]: unable to activate
9 | Agr D2 Thiolactone (peptide) |  |  |  | 3.4 |  |  | ED50 Activation (nM), agr P3-blaZ beta-lactamase reporter [12]: 3.6 nM; IC50 Inhibition (nM), agr P3-blaZ beta-lactamase reporter [13]: 3.1 nM
10 | Agr D2 Lactone (peptide) |  |  |  | 7.9 |  |  | 
